Test: Human HepG2 cell viability assay in 384 well format
Assay type: toxicity, cell-based
Design: dose 125 nL, time 70.5 hour; cytotoxicity at 70.5 h: concentration not given beside the values
Settings: HepG2 cells, read-out: Inhibition

Row | Structure (SMILES) | cytotoxicity at 70.5 h [%]
1 | Cc1c(CN2CCCC2(C)C(=O)NC2CCCC2)cnn1C (stereo unspecified) | 5.02
2 | CNc1nccnc1C1CN(Cc2ccc(OCC(=O)O)cc2)CCO1 (stereo unspecified) | -5.37
3 | Cn1cc(CN2CCCC(c3nc(O)cc(-c4cccs4)n3)C2)cn1 (stereo unspecified) | -6.31
4 | COc1ccc(S(=O)(=O)N2C[C@H](OC)[C@]3(CCCO3)C2)cc1 | -16.2
5 | NC(=O)C1(Cc2ccc(-c3ccccc3)cc2)CCNC1 (stereo unspecified) | 36.2
6 | Cc1ccccc1CC(=O)N1C[C@@H](O)[C@H](N2CCC(F)(F)CC2)C1 | -7.85
7 | Cc1c[nH]nc1C1CCN(C(=O)C2CCOCC2)C1 (stereo unspecified) | 12.3
8 | NC(=O)CN1CCC(c2cccc(Oc3ccccc3)n2)CC1 | -1.34
9 | c1cc(C2CCCN2CC2CCCCC2)n[nH]1 (stereo unspecified) | -8.35
10 | Cc1nc(C2CCN(c3ccccc3)CC2)no1 | 8.78
11 | CC1(C(N)=O)CCCN(c2cnccn2)C1 (stereo unspecified) | 5.53
12 | CCN(CC)S(=O)(=O)N1CCCC1c1cccc(Nc2ncc(C)s2)n1 (stereo unspecified) | -11.3
13 | COCC(=O)N1CCCC1(C)c1nc(C)cc(O)n1 (stereo unspecified) | -10.5
14 | CNc1nc(C2CCCN(C(=O)C(C)(C)OC)C2)nc2c1CN(C)CC2 (stereo unspecified) | -13.7
15 | O=C(NC1CC1)c1cc(C2CCCN(Cc3ccccn3)C2)no1 (stereo unspecified) | -13.3
16 | Cc1cc(C)n(CCNC(=O)c2cc(C3CC3)n[nH]2)n1 | -4.88
17 | COCCC(=O)N1CCC(c2cc3ncc(C)nc3[nH]2)CC1 | -14.7
18 | Cc1cnc(Nc2cccc(C3CCCN3C(=O)CO)n2)s1 (stereo unspecified) | -6.4
19 | CS(=O)(=O)N1CCC(c2ccncn2)CC1 | -10.9
20 | Cc1c(C(=O)NC2CCCOC2)nnn1-c1ccccc1 (stereo unspecified) | 17.4
21 | CC(C)Nc1nc(O)cc(C2CC(=O)N(Cc3ccccc3)C2)n1 (stereo unspecified) | -7.01
22 | COc1cccc(C(=O)N2C[C@@H](c3ccccc3)[C@@H]3NCCCC[C@@H]32)c1 | -8.79
23 | O=S(=O)(c1cn[nH]c1)N1CCCC1c1cc[nH]n1 (stereo unspecified) | -7.61
24 | Cn1cnc(S(=O)(=O)N2CCCC2c2cnccn2)c1 (stereo unspecified) | -9.6

Row | Structure (SMILES) | cytotoxicity at 70.5 h [%]
25 | COc1ccccc1C1CCCN1CC(=O)N1CCC(C(N)=O)CC1 (stereo unspecified) | 22.3
26 | CN(C)c1cc(C2CCCN(S(=O)(=O)c3cn[nH]c3)C2)ccn1 (stereo unspecified) | -1.45
27 | CN(C)S(=O)(=O)N1CCCC(c2ccncn2)C1 (stereo unspecified) | -5.39
28 | O=C1CCCN1CCCC(=O)N1CCCC(c2ccn[nH]2)C1 (stereo unspecified) | -12
29 | O=C(O)c1ccc(CN2CCC(c3ccnc4ccnn34)CC2)cc1 | -12
30 | Cc1cnc(CN2C[C@H]3C[C@H](Oc4ccccc4)C[C@H]3C2)cn1 | 34.2
31 | COC(=O)[C@@H]1CN(C(=O)c2cscn2)C[C@H]1c1ccc(OC)cc1 | -1.39
32 | COc1ccc([C@@H]2CN(C(=O)c3cscn3)C[C@H]2C(=O)O)cc1 | -3.2
33 | COc1ccccc1CC(=O)NC(C)c1nc2cccnc2n1C(C)C (stereo unspecified) | -1.11
34 | C=C(C)CN1CCN(Cc2cnc(OC)nc2)CC1 | 6.5
35 | Cc1cnc(-c2nc(NC3CCCC3)ncc2-c2onc(C)c2C)cn1 | -4.47
36 | Cc1cnc(-c2nc(NC3CC3)ncc2-c2onc(C)c2C)cn1 | -4.72
37 | O=C(O)C1CN(c2cccc(F)c2)CCO1 (stereo unspecified) | 14.9
38 | Cc1cccc(C(=O)N2CCCC(Cc3cncc4ccccc34)C2)n1 (stereo unspecified) | -0.949
39 | CC(=O)N1CCCC(c2nc(N(C)C)ncc2-c2cccc(F)c2)C1 (stereo unspecified) | 3.21
40 | Fc1cccc(OC2CCN(Cc3ncc[nH]3)CC2)c1 | 18
41 | CNC(=O)c1cn[nH]c1C1CCN(Cc2ccccc2F)C1 (stereo unspecified) | -3.84
42 | Cc1n[nH]cc1C(=O)N1CCCC1c1cc[nH]n1 (stereo unspecified) | -5.51
43 | COCCN1CC(c2cc(O)nc(NC(C)C)n2)CC1=O (stereo unspecified) | -6.05
44 | COCCN1CCCC(c2cncc(Oc3ccccc3OC)n2)C1 (stereo unspecified) | -3.1
45 | COCCNC(=O)C1(Cc2ccccc2-c2ccncc2)CCOCC1 | -9.35
46 | Cc1nc(C)n(CC(=O)N2CCCC(c3cc4ccccc4cn3)C2)n1 (stereo unspecified) | -5.39
47 | CCn1cc(S(=O)(=O)NC2(CN3CCOCC3)CCCCC2)c(C)n1 | -0.203
48 | O=C(CCn1c(C(F)F)cc2cccnc21)NC1CCCCC1 | -5.83

Row | Structure (SMILES) | cytotoxicity at 70.5 h [%]
49 | Cc1cc(-c2cnc(C)nc2CN(C)C(=O)c2cc(C3CC3)on2)on1 | -3.21
50 | O=C(c1c[nH]nn1)N1CCN(C(c2ccccc2)C(F)(F)F)CC1 (stereo unspecified) | -10.3
51 | CNS(=O)(=O)c1cccc(CNC(=O)CCc2ccsc2)c1 | -4.01
52 | COC(=O)C(C)(C)NC(=O)c1scnc1Cl | 0.537
53 | CC1(C)CN(C(=O)CCc2nc(-c3ccncc3)no2)CCO1 | -12
54 | CC1(C)COCCN1C(=O)CCc1nc(-c2ccccn2)no1 | -18.1
55 | Cn1ccc(CS(=O)(=O)Cc2ccccc2)cc1=O | -12.9
56 | CCC(CC)(CCCNC(=O)c1c(C)noc1C)C1OCCO1 | -5.03
57 | Cc1c(C(=O)O)nnn1-c1cccc2cccnc12 | -13.1
58 | COc1ccccc1CNCCc1cccc(C(N)=O)c1 | -12.3
59 | CCCNc1nc(CS(=O)(=O)c2ccccc2)cs1 | -7.26
60 | COC(=O)C(NC(=O)c1ccc(N(C)C)nc1)c1ccccc1 (stereo unspecified) | -8.4
61 | C=C(C)CNc1nc(CS(=O)(=O)c2ccccc2)cs1 | -2.16
62 | Cc1c(C(=O)N2CCC2(C)C)nnn1-c1cccc2cccnc12 | -3.77
63 | O=C(Cc1cccc(F)c1F)NS(=O)(=O)c1ccc(Cl)cc1F | 12.1
64 | Cc1c(C(=O)N2CCC2(C)C)nnn1-c1cccc2cnccc12 | -12.7
65 | Cc1c(C(=O)N2CC(=O)N(C)C2)nnn1-c1cccc2cccnc12 | -3.09
66 | CCc1ccc(C(NCC(N)=O)C(C)(C)C)o1 (stereo unspecified) | -6.31
67 | Cc1ccc(F)c(N2CCCC(NS(=O)(=O)CCCF)C2=O)c1 (stereo unspecified) | -11.4
68 | CCOCCCNc1nc(CS(=O)(=O)c2ccccc2)cs1 | -6.56
69 | Cc1csc(CN(C)S(=O)(=O)c2ccc(C)c(N(C)C)c2)n1 | -11.1
70 | Cc1cc(CC(=O)N(C)Cc2cccc(OC(C)C)c2)n[nH]1 | -9.38
71 | COCCOCC(=O)NC1CCN(c2ccccn2)CC1 | 16.4
72 | NC(=O)CNC(c1ccccc1)c1ccc(OC(F)F)cc1 (stereo unspecified) | 11.2

Row | Structure (SMILES) | cytotoxicity at 70.5 h [%]
73 | O=C(COCCOc1ccccc1)NC1CCN(c2ncccn2)CC1 | 41.6
74 | O=C(COCCOc1ccccc1)NC1CCN(C(=O)C2CC2)CC1 | 14.4
75 | Cc1cc(C)c(S(N)(=O)=O)cc1C(=O)NCCN1CCC(C)CC1 | -12.9
76 | NC(=O)CN1CCC(NC(=O)COCCOc2ccccc2)CC1 | -4.83
77 | N#CC1(C(=O)N2CCOC(c3ccc(F)cc3)C2)CCCC1 (stereo unspecified) | -15.9
78 | CCc1nnc2n1CCN(C(C(N)=O)c1ccc(F)cc1)C2 (stereo unspecified) | 26.6
79 | CS(=O)(=O)NC1CC(=O)N(c2ccccc2Cl)C1 (stereo unspecified) | -27
80 | Cc1cc(Br)ccc1C(=O)NCCN1CCCCCC1 | -10.6
81 | CC(C)(C)CNC(=O)c1ccc(C(=O)O)nc1 | -9.27
82 | COc1cccc(S(=O)(=O)NC(=O)C2CC(c3ccccc3)=NO2)c1 (stereo unspecified) | -9.7
83 | CCC(c1ccc(F)cc1)N1CCn2c(CO)nnc2C1 (stereo unspecified) | -8.02
84 | NC(=O)CSCC(=O)NC1(c2cccc(Br)c2)CC1 | 32.5
85 | CCc1nc(C2CCCN2C(=O)c2cnc3n[nH]c(C)c3c2)no1 (stereo unspecified) | -12.5
86 | CCCOc1ccc(CCC(=O)Nc2nonc2C)cc1 | -4.36
87 | O=C(O)CCc1ccc(S(=O)(=O)Nc2cnn(CC3CC3)c2)cc1 | 27.6
88 | Cn1nc(C(=O)NC2(c3ccccc3)CCC2)ccc1=O | 1.95
89 | Cc1ccc(C)c(OCC(=O)NC2CCN(c3ccccn3)CC2)c1 | -11.1
90 | CC1Oc2c(cccc2C(=O)N2CCCCCC2)NC1=O (stereo unspecified) | 29.3
91 | COc1cccc(Cn2[nH]c(C)c3c(NC(=O)C(C)OC)nnc2-3)c1 (stereo unspecified) | -6.21
92 | CN(C)CCN(C)C(=O)NC1CCC(Oc2ccccc2C#N)CC1 (stereo unspecified) | -4.89
93 | Cc1nnc(NCCc2coc(-c3ccccc3)n2)c(C#N)c1C | -2.75
94 | COc1ccc(-c2nc(CCNc3nnc(C)c(C)c3C#N)co2)cc1 | 13.7
95 | O=C1CC(C(=O)Nc2nnc(-c3ccccn3)[nH]2)c2ccccc2N1 (stereo unspecified) | 6.91
96 | CC(C)c1noc(C[S+]([O-])CC(=O)Nc2ccc(F)c(F)c2)n1 (stereo unspecified) | 10.4

Row | Structure (SMILES) | cytotoxicity at 70.5 h [%]
97 | Cc1csc(-c2cccc(NC(=O)N3CCOCC3)c2)n1 | -3.32
98 | CC(C)C(C)(CNC(=O)OC(C)(C)C)NC(=O)c1cnccn1 (stereo unspecified) | 2.42
99 | CN1CCOC(CNCc2nc(-c3cccnc3)no2)C1 (stereo unspecified) | -6.13
100 | CC(C)c1nc(S(=O)(=O)Nc2ccnn2C2CCCC2)c[nH]1 | 1.34
101 | O=C(Nc1ccc(-c2ccccc2)cn1)C1CCCN1C(=O)C1CC1 (stereo unspecified) | 5.65
102 | CN1CCOC(CNCc2nc(-c3ccco3)no2)C1 (stereo unspecified) | 2.27
103 | Cc1cc(Cn2cncc(Br)c2=O)on1 | 5.25
104 | O=C(NCC(O)c1ccsc1)c1sccc1OC(F)F (stereo unspecified) | -13.8
105 | CCOCCN1CCN(CC2(O)CCCCC2)CC1 | -4.54
106 | CCn1nc2c(cc1=O)CN(CCCOc1ccc(C#N)cc1)CC2 | 10.4
107 | Cc1ccc(C(=O)NCC(O)CN2CCCC2=O)c(C)c1 (stereo unspecified) | -1.64
108 | Cc1cc(C)n(CC2CCN(CC(O)CN3CCOCC3)CC2)n1 (stereo unspecified) | -2.43
109 | CCS(=O)(=O)N1Cc2ccccc2CC1C(=O)OCc1c(C)noc1C (stereo unspecified) | -7.84
110 | COc1cc2cc(C)c(SCCN3CCCC3)nc2cc1OC | -6.08
111 | CCN1CCc2cc(-c3cncn3CC(=O)NC(C)(C)C)ccc21 | -6.27
112 | CN(C)c1ncc(C2Nc3ccccc3C3=NCCCN32)cn1 (stereo unspecified) | -4.88
113 | COCCC(=O)NC1CCN(CC2(c3cccc(F)c3)CCCC2)CC1 | 0.0702
114 | CCC(CN1CCCC1)NC(=O)Cc1c(C)[nH]c2c(C)cc(C)cc12 (stereo unspecified) | 12.8
115 | Cc1ccc(CN(CCCN(C)C)Cc2cnc(C)n2C)o1 | 6.53
116 | Cc1ccc(CN(CCCN2CCOCC2)Cc2[nH]cnc2C)o1 | -2.33

— ChEMBL document CHEMBL3507680, “University of Dundee, Gates Library screen for HepG2 cell viability”
